Data published in publication doi:10.1101/850305v1 (biorxiv, 2019).
In brackets after ≈: the same amount, converted by molar mass. Like-named read-outs stand apart in the source and are kept apart here.

Key:
E. coli LpxA [1] = biological target: T1, E. coli LpxA (Escherichia coli, UniProt P0A722); experiment: SPE-MS detection of LpxA product; type: biochemical
T1 sequence (P0A722 1-262): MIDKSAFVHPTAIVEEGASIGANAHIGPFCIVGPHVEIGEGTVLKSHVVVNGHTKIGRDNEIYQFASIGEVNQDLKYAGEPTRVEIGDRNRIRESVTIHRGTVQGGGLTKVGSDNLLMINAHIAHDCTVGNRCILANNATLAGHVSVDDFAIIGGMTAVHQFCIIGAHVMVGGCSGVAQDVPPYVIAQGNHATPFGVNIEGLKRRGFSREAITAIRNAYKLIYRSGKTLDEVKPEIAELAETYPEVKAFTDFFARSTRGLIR

CDY0154 E. coli Δ9efflux = experiment: microbe, parasite or virus in culture; conditions: Escherichia coli
MG1655 E. coli K-12 = experiment: microbe, parasite or virus in culture; conditions: Escherichia coli
E. coli LpxA [2] = biological target: T1, E. coli LpxA; experiment: SPR; type: binding
VECO2526 E. coli ΔtolC = experiment: microbe, parasite or virus in culture; conditions: Escherichia coli
[3] = test system: ATCC 25922 E. coli clinical isolates; experiment: microbe, parasite or virus in culture; conditions: Escherichia coli
[4] = test system: Escherichia coli TUP0115 ΔtolC pLacZα; experiment: microbe, parasite or virus in culture; conditions: read-out: MIC
E. coli LpxA [5] = biological target: T1, E. coli LpxA; experiment: SPR; type: binding; remark: listed apart in the source
E. coli LpxA [6] = biological target: T1, E. coli LpxA; experiment: SPE-MS detection of LpxA product; type: biochemical; remark: listed apart in the source
E. coli LpxA [7] = biological target: T1, E. coli LpxA; experiment: SPE-MS detection of LpxA product; type: biochemical; remark: listed apart in the source

COc1cccc(F)c1C[C@@H]1COCCN1C(=O)c1cc(-c2cc(C)ccn2)n[nH]1 [compound 9]
IC50 (E. coli LpxA [1]): 2.5 µM

Cc1ccnc(-c2cc(C(=O)N3CCOC[C@H]3Cc3ccccc3Cl)[nH]n2)c1 [compound 7]
IC50 (E. coli LpxA [1]): 2.9 µM

Cc1ccnc(-c2cc(C(=O)N3CCOC[C@H]3Cc3ccccn3)[nH]n2)c1 [compound 5]
IC50 (E. coli LpxA [1]): 86 µM

Cc1ccnc(-c2cc(C(=O)N3CCOCC3)[nH]n2)c1 [compound 3]
IC50 (E. coli LpxA [1]): > 250 µM

COc1cccc(Cl)c1C[C@@H]1COCCN1C(=O)c1cc(-c2cc(C)ccn2)n[nH]1 [compound 11]
IC50 (E. coli LpxA [1]): 0.5 µM

COc1ccc(C(=O)CN2C(=O)NC(c3ccccc3)(c3ccccc3)C2=O)cc1 [compound 1]
MIC (CDY0154 E. coli Δ9efflux; read-out: MIC compound 1): 0.5 µg/mL (≈ 1.25 µM)
MIC (MG1655 E. coli K-12; MG1655, read-out: MIC compound 1): > 16 µg/mL
Kd (E. coli LpxA [2]): 0.1 µM
IC50 (E. coli LpxA [1]): 1.4 µM
MIC (VECO2526 E. coli ΔtolC; read-out: MIC compound 1): 0.5 µg/mL (≈ 1.25 µM)
MIC ([3]; ATCC25922, read-out: MIC compound 1): > 16 µg/mL
MIC [4]: 0.5 µg/mL (≈ 1.25 µM)

Cc1ccnc(-c2cc(C(=O)N3CCOC[C@H]3Cc3ccccc3)[nH]n2)c1 [compound 2]
MIC (CDY0154 E. coli Δ9efflux; read-out: MIC compound 2): 2 µg/mL (≈ 5.52 µM)
Kd (E. coli LpxA [5]): 110 µM
MIC (MG1655 E. coli K-12; MG1655, read-out: MIC compound 2): > 128 µg/mL
IC50 (E. coli LpxA [6]): 4.8 µM
MIC (VECO2526 E. coli ΔtolC; read-out: MIC compound 2): 2 µg/mL (≈ 5.52 µM)
MIC ([3]; ATCC25922, read-out: MIC compound 2): > 128 µg/mL

Cc1ccnc(-c2cc(C(=O)N3CCOC[C@H]3Cc3ccccc3F)[nH]n2)c1 [compound 6]
IC50 (E. coli LpxA [7]): 3 µM

Cc1ccnc(-c2cc(C(=O)N3CCOC[C@H]3C(C)C)[nH]n2)c1 [compound 4]
IC50 (E. coli LpxA [1]): 148 µM

COc1ccccc1C[C@@H]1COCCN1C(=O)c1cc(-c2cc(C)ccn2)n[nH]1 [compound 8]
IC50 (E. coli LpxA [7]): 11 µM

Cc1ccnc(-c2cc(C(=O)N3CCOC[C@@H]3Cc3ccccc3)[nH]n2)c1 [compound 12]
IC50 (E. coli LpxA [1]): 171 µM

COc1cccc(Cl)c1C[C@@H]1COCCN1C(=O)c1cc(-c2cc(C)c(N)cn2)n[nH]1 [compound 13]
IC50 (E. coli LpxA [7]): 0.6 µM

C[C@@H](O)[C@H](NC(=O)c1ccc(C#Cc2ccc(CN3CCOCC3)cc2)cc1)C(=O)NO [CHIR-090]
MIC (CDY0154 E. coli Δ9efflux; read-out: MIC CHIR-090): 0.075 µg/mL (≈ 0.171 µM)
MIC (VECO2526 E. coli ΔtolC; read-out: MIC CHIR-090): 0.015 µg/mL (≈ 0.0343 µM)
